In the supplement of paper PMC10307832:

Legend:
Experiment in all cases: relative viability (nuclei count vs DMSO), 5 days (fraction); higher = more cells survive
[1] = compound: CCn1c(-c2nonc2N)nc2c(C#CC(C)(C)O)ncc(OC[C@H]3CCCNC3)c21 + Nc1nc2[nH]cc(CCc3ccc(C(=O)N[C@@H](CCC(=O)O)C(=O)O)cc3)c2c(=O)[nH]1 [Pemetrexed] (partner 0.2 µM)
Summary of the method: (§1)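 Lung cancer cell lines were seeded in 1536-well plates and dosed by pin tool the next day, with either a single drug or a fixed anchor-drug dose combined with five library-drug doses (not always all listed) spaced in √10 steps. Five days later, one step fixed the cells and stained their nuclei (final 0.05% Triton X-100, 1% formaldehyde, 1 ug/ml Hoechst), and nuclei were counted on 4× images. Relative viability is the nuclei count in treated wells divided by the count in vehicle wells, and each value is the median of duplicate plates.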

BAM7 + Alpelisib = compound: CCOC1=CC=CC=C1N=NC2=C(NN(C2=O)C3=NC(=CS3)C4=CC=CC=C4)C [BAM7] + Cc1nc(NC(=O)N2CCC[C@H]2C(N)=O)sc1-c1ccnc(C(C)(C)C(F)(F)F)c1 [Alpelisib] (partner 2 µM)
Summary of the method: as §1

BAM7 + Palbociclib = compound: CCOC1=CC=CC=C1N=NC2=C(NN(C2=O)C3=NC(=CS3)C4=CC=CC=C4)C [BAM7] + CC(=O)c1c(C)c2cnc(Nc3ccc(N4CCNCC4)cn3)nc2n(C2CCCC2)c1=O [Palbociclib] (partner 0.5 µM)
Summary of the method: as §1

[2] = compound: CCn1c(-c2nonc2N)nc2c(C#CC(C)(C)O)ncc(OC[C@H]3CCCNC3)c21 + CS(=O)(=O)N1CCN(Cc2cc3nc(-c4cccc5[nH]ncc45)nc(N4CCOCC4)c3s2)CC1 [Pictilisib] (partner 1 µM)
Summary of the method: as §1

Cell Line	relative viability ([1]; first compound 0.01 µM)	relative viability ([1]; first compound 0.03162 µM)	relative viability ([1]; first compound 0.1 µM)	relative viability ([1]; first compound 0.3162 µM)	relative viability ([1]; first compound 1 µM)	relative viability (BAM7 + Alpelisib; first compound 0.5 µM)	relative viability (BAM7 + Alpelisib; first compound 5 µM)	relative viability (BAM7 + Alpelisib; first compound 15.81 µM)	relative viability (BAM7 + Alpelisib; first compound 50 µM)	relative viability (BAM7 + Palbociclib; first compound 0.5 µM)	relative viability (BAM7 + Palbociclib; first compound 5 µM)	relative viability (BAM7 + Palbociclib; first compound 15.81 µM)	relative viability (BAM7 + Palbociclib; first compound 50 µM)	relative viability ([2]; first compound 0.01 µM)	relative viability ([2]; first compound 0.03162 µM)	relative viability ([2]; first compound 0.1 µM)	relative viability ([2]; first compound 0.3162 µM)	relative viability ([2]; first compound 1 µM)
COR-L 105	1.18	1.21	1.18	1.23	1.3	1.01	1.06	0.967	0.981	0.407	0.387	0.373	0.41	0.428	0.345	0.333	0.549	0.379
NCI-H1355	0.959	0.981	1.02	1.02	1.06	0.786	0.832	0.725	0.772	0.415	0.385	0.377	0.416	0.534	0.361	0.384	0.392	0.472
H3255	0.543	0.571	0.618	0.536	0.548	0.691	0.673	0.649	0.734	0.337	0.341	0.359	0.355	0.457	0.526	0.421	0.465	0.486
NCI-H1993	0.642	0.509	0.516	0.553	0.519	0.766	0.689	0.585	0.629	0.502	0.539	0.453	0.478	1.03	0.735	0.887	0.866	0.887
NCI-H1734	0.389	0.419	0.385	0.391	0.431	0.74	0.804	0.638	0.676	0.38	0.332	0.364	0.318	0.456	0.466	0.403	0.423	0.461
HOP-62	0.289	0.407	0.289	0.288	0.286	0.921	0.826	0.901	0.797	0.45	0.385	0.454	0.491	0.688	0.75	0.703	0.843	0.794
LOU-NH91	0.403	0.366	0.419	0.4	0.399	0.753	0.728	0.629	0.684	0.458	0.569	0.538	0.517	0.547	0.501	0.483	0.504	0.526
NCI-H2228	0.336	0.302	0.328	0.339	0.318	0.863	0.879	0.763	0.607	0.853	0.966	1.19	1.07	0.295	0.386	0.347	0.216	0.294
PC-14	0.127	0.126	0.14	0.136	0.147	0.983	0.841	0.915	0.906	0.592	0.479	0.335	0.42	0.633	0.754	0.75	0.72	0.564
NCI-H1437	0.338	0.324	0.318	0.353	0.283	1.07	1	0.911	0.909	0.318	0.326	0.306	0.326	0.445	0.522	0.432	0.406	0.378
NCI-H460	0.0616	0.0628	0.063	0.0642	0.0565	0.514	0.468	0.473	0.403	0.179	0.148	0.216	0.165	0.426	0.314	0.203	0.306	0.203
NCI-H1666	0.865	0.857	0.782	0.885	0.907	1.04	0.892	0.9	0.984	0.628	0.627	0.669	0.677	0.533	0.395	0.543	0.408	0.392
NCI-H1651	0.653	0.605	0.597	0.574	0.572	1.01	0.861	0.967	0.883	0.528	0.52	0.512	0.508	0.551	0.564	0.607	0.523	0.639
NCI-H1755	0.476	0.439	0.419	0.393	0.383	0.994	0.982	0.902	0.948	0.462	0.466	0.439	0.436	0.426	0.445	0.41	0.408	0.382
NCI-H661	0.903	0.937	0.938	0.713	0.926	0.736	0.7	0.699	0.699	0.443	0.433	0.422	0.422	0.368	0.564	0.299	0.385	0.401
HARA	0.24	0.19	0.223	0.247	0.249	0.879	0.816	0.594	0.847	0.253	0.224	0.229	0.243	0.474	0.359	0.376	0.458	0.419
NCI-H23	0.647	0.642	0.58	0.579	0.611	0.743	0.782	0.656	0.723	0.612	0.479	0.466	0.519	0.421	0.375	0.373	0.445	0.417
LCLC-97TM1	0.169	0.179	0.141	0.147	0.175	0.303	0.235	0.235	0.316	0.272	0.185	–	0.186	–	0.208	0.231	0.21	0.158
EPLC-272H	0.299	0.301	0.346	0.297	0.282	1.08	0.802	0.877	0.831	0.349	0.315	0.327	0.351	0.287	0.282	0.286	0.301	0.314
NCI-H1915	0.452	0.514	0.487	0.444	0.49	1.08	1.11	1.03	1.05	0.598	0.548	0.516	0.501	0.977	0.941	0.957	0.871	0.979
NCI-H2405	1.03	1.12	0.964	0.96	1.13	0.862	0.773	0.684	0.839	0.507	0.577	0.546	0.553	0.407	0.492	–	0.445	0.406
NCI-H322M	0.634	0.571	0.556	0.568	0.571	0.859	0.816	0.803	0.801	0.527	0.564	0.524	0.509	0.448	0.483	0.341	0.476	0.413
NCI-H2170	0.278	0.286	0.266	0.271	0.234	0.631	0.603	0.537	0.672	0.38	0.381	0.329	0.319	0.301	0.296	0.342	0.312	0.281
NCI-H1395	0.745	0.811	0.793	0.647	0.769	1.23	1.04	1.04	1.24	0.578	0.627	0.606	0.614	0.665	0.536	0.561	0.553	0.57
NCI-H358	0.231	0.192	0.176	0.182	0.166	0.953	0.837	0.859	0.85	–	0.129	0.141	0.137	0.332	0.364	0.364	0.318	0.32
NCI-H838	0.248	0.251	0.238	0.225	0.255	1.06	1.05	0.989	1	0.24	0.243	0.222	0.218	0.496	0.44	0.536	0.499	0.553
CAL-12T	1.12	1.2	1.13	0.994	1.2	1.21	1.19	1	1.39	0.593	0.372	0.419	0.513	0.327	0.374	0.351	0.306	0.329
